How the values were obtained:
[1] = target: T1, human α4β2 subtype of nicotinic acetylcholine receptors (Homo sapiens, UniProt P17787+P43681); type: cell-based
T1 construct: expressed in transfected cells; host or cells: Xenopus laevis oocytes injected with hnACh-R α4 and β2 cRNA (pSP64 polyA vector)
Experimental: The agonist effect in human α4β2 subtype of nicotinic acetylcholine receptors are examined by using human nicotinic acetylcholine receptors prepared in oocytes of Xenopus laevis, which is injected with cRNA from the corresponding cloning cDNA of human α4 and β2 subunits of nicotinic acetylcholine receptors, and to measure the expression of the electric response by adding the test compounds to perfusion solution by means of membrane potential holding method.
Agonist Activities at Human α4β2 Subtype of Nicotinic Acetylcholine Receptors
The agonist activities of the compounds of the present invention at human α4β2 subtype of nicotinic acetylcholine receptors was evaluated by the following method, which was modified method described by Papke R. L., Thinschmidt J. S., Moulton B. A., Meyer E. M. & Poirier A., Br. J. Pharmacol., 120, 429-438 (1997).
(1) Preparation of cRNA of Human α4β2 Subtype of Nicotinic Acetylcholine Receptors
The cloning of human nicotinic acetylcholine receptor (hnACh-R) α4 cDNA and hnAC-R β2 cDNA were performed, in accordance with the conventional manners, by synthesizing the each DNA primers corresponding to the sequences of hnACh-R α4 cDNA and hnACh-R β2 cDNA [Monteggia L. M. et al., Gene, 155, 189-193 (1995); and Anand R., & Lindstrom J., Nucl. Acids Res., 18, 4272 (1990)], and obtained hnACh-R α4 cDNA and hnACh-R β2 cDNA by polymerase chain reaction (PCR), respectively. The obtained hnACh-R α4 cDNA and hnACh-R β2 cDNA were inserted to the cRNA expression vector (pSP64 polyA) having SP6 RNA promoter to construct hnACh-R α4/pSP64 polyA and hnACh-R β2/pSP64 polyA, respectively. After cutting from expression vector by restriction enzyme (EcoRI), transcription was performed by affecting SP6 RNA polymerase in the presence of cap analogues to obtain hnACh-R α4 cRNA and hnACh-R β2 cRNA, respectively.
(2) Expression of Human α4β2 Subtype Nicotinic Acetylcholine Receptors in Xenopus Oocytes
Oocytes were purchased from Kitanihonseibustukyohzai Co., Ltd., which were already enucleated from Xenopus laevis, and used in this experiment.
The oocytes were treated with collagenase (Sigma type I; 1 mg/ml) in calcium-free modified Birth's solution (88 mM of NaCl, 1 mM of KCl, 2.4 mM of NaHCO3, 0.82 mM of MgSO4, 15 mM of HEPES, pH 7.6) under gently stirring at the room temperature for 90 minutes, and washed out the enzyme from the tissue. Then, oocytes were separated from ovarian follicle by tweezers, and isolated oocytes were placed in antibiotics containing modified Birth's solution (88 mM of NaCl, 1 mM of KCl, 2.4 mM of NaHCO3, 0.82 mM of MgSO4, 15 mM of HEPES, pH 7.6, and 0.1 v/v % of mixture solution containing of penicillin and streptomycin for incubation; Sigma Co.). Thus treated oocytes were injected with 50 nl of adjusted cRNAs (1.0 mg/ml), that is, each 50 ng of hnACh-R α4 cRNA and hnACh-R β2 cRNA per 1 oocyte by using automatic injector (NANOJECT; DRUMMOND […] CO.), and further incubated for 4-14 days at 19° C. In oocytes, heterogeneous quintuple [(α4)2(β2)3] was composed by translation of injected cRNAs, and ion channel receptors were constructed on cell membrane.
(3) Agonist Activities at Human α4β2 Subtype of Nicotinic Acetylcholine Receptors
The recordings of responses at human α4β2 subtype of nicotinic acetylcholine receptors by means of membrane potential holding method were performed as follow. […] Test compounds were added to the perfusion solution, and recorded the peak strength of induced inward electric current. […]

[2] = target: T2, α1β1γδ subtype of nicotinic acetylcholine receptors (Rattus norvegicus, UniProt P18916+P25108+P25109+P25110); assay: biochemical; type: binding
T2 construct: The centrifugation at 100,000×G for 60 minutes at 4° C. yielded the rat muscle extract as supernatant
Source text: (§1) The methods for evaluating the binding capabilities of the compounds against nicotinic acetylcholine receptors are different by subtypes of receptors. The binding capabilities of the compounds at α4β2 nicotinic acetylcholine receptors are examined using rat brain membrane obtained from whole homogenized brain, and determining the inhibiting rate of the compounds against [^3H]-cytisine binding to said brain membrane. Furthermore, the binding capabilities of the compounds at α1β1γδ nicotinic acetylcholine receptors are examined using homogenized rat muscle, and determining the inhibiting rate of the compounds against [^3H]-α-bungarotoxin binding to said muscle membrane.
Binding Assays at α1β1γδ Subtype of Nicotinic Acetylcholine Receptors
The affinity of the compounds of the present invention to α1β1γδ subtype of nicotinic acetylcholine receptors was measured by the following method, which was modified method described by Garcha H. S., Thomas P., Spivak C.
(1) Preparation of Rat Skeletal Muscles Containing α1β1γδ Subtype of Nicotinic Acetylcholine Receptors
The substantially same animals described in the Biological Experiment 1 were used.
The isolation of α1β1γδ subtype of nicotinic acetylcholine receptors was performed as follow. That is, rat posterior skeletal muscles were isolated just after sacrificed by decapitation, washed with ice-cooled saline solution and then frozen at −80° C. with liquid nitrogen and stored till using. After thawing the frozen muscles, tissue was homogenized (40% w/v) with buffer solution [2.5 mM of sodium phosphate buffer (pH:7.2), 90 mM of NaCl, 2 mM of KCl, 1 mM of EDTA, 2 mM of benzamidine, 0.1 mM of benzethonium chloride, 0.1 mM of PMSF, 0.01% of sodium azide] in Waring blender [Waring blender 34BL97; WARING PRODUCTS DIVISION DYNAMICS CORPORATION OF AMERICA) for 60 seconds. The homogenate were centrifuged under 20,000×G for 60 minutes at 4° C. The supernatant was separated and the resulting pellet was added to the same buffer (1.5 ml/g wet weight), and homogenized under the same conditions. Triton X100 (2% w/v) was added and the mixture was stirred for 3 hours at 4° C. The centrifugation at 100,000×G for 60 minutes at 4° C. yielded the rat muscle extract as supernatant. This was stored at 4° C. for up to 4 weeks, and used for binding assays at receptors.
(2) Experiments of α1β1γδ Subtype of Nicotinic Acetylcholine Receptors Binding
Receptors binding experiments were performed as follow. That is, the extract of rat muscle containing 600-900 μg of protein was added to test tubes containing test compounds and incubated for 15 minutes at 37° C. Then, to this mixture was added 1 nM of [^3H]-α-bungarotoxin (α-Bgt) and further incubated for 2 hours. The samples were isolated by vacuum filtration onto Whatman GF/B filters, which were prerinsed with 0.5% polyethylenimine just prior to sample filtration, using Brandel multi manifold cell harvester. The filters were rapidly rinsed with washing solution (10 mM of KH2PO4, 150 mM of NaCl, pH 7.2, room temperature) (5×1 ml). The filters were counted in 3 ml of clearsol I (Nacalai Tesque Inc.). The determination of nonspecific binding was incubated in the presence of 1 μM α-Bgt. […] In the receptor binding experiments, said buffer solution was added for adjusting the final concentration of BSA to be 0.05%.
The analyses of the experimental results were conducted by as described in the Biological Experiment 1.

[3] = target: T3, α4β2 subtype of nicotinic acetylcholine receptors (Rattus norvegicus, UniProt P09483+P12390); assay: Binding assay at α4β2 subtype of nicotinic acetylcholine receptors ([3H]-cytisine, rat brain membrane)
T3 construct: examined using rat brain membrane obtained from whole homogenized brain; from tissue; host or cells: whole brain membranes of Fischer-344 male rats
Source text: as §1
Binding Assays at α4β2 Subtype of Nicotinic Acetylcholine Receptors
The affinity of the compounds of the present invention to α4β2 subunit of nicotinic acetylcholine receptors was performed by the following method, which was modified method described by Pabreza L. A., Dhawan S. & Kellar K. J., Mol. Pharm., 39, 9-12 (1990), and by Anderson D. J. & Arneric S. P., Eur. J. Pharm., 253, 261-267 (1994).
(1) Preparation of Rat Brain Membrane Containing α4β2 subtype of Nicotinic Acetylcholine Receptors
Fischer-344 strain male rats (body weight: 200-240 g; 9 weeks old) obtained from Charles River Japan were used. Rats were housed in the breeding cage controlled of the room temperature at 23±1° C., and the humidity of 55±5% for 1 to 4 weeks. Rats (3 to 4 rats per a cage) were housed with lights on for 12 hours daily (from 7:00 to 19:00), and allowed free access to food and water.
Preparation of rat brain membrane containing α4β2 subtype of nicotinic acetylcholine receptors was performed as follow. That is, rat brains were isolated just after sacrificed by decapitation, washed with ice-cooled saline solution and then frozen at −80° C. with liquid nitrogen and stored till using. After thawing the frozen brain, the brain was homogenized in 10 volumes of buffer solution (50 mM of Tris-HCl, 120 mM of NaCl, 5 mM of KCl, 1 mM of MgCl2, 2mM of CaCl2; pH 7.4; 4° C.) using homogenizer (HG30, Hitachi Kohki Ltd.) for 30 seconds, and the homogenate were centrifuged under 1,000×G for 10 minutes at 4° C. The resulting supernatant was separated and the pellet was homogenized again with half volume of aforementioned prior buffer solution and centrifuged under the same conditions. Combined supernatant was further centrifuged under 40,000×G for 20 minutes at 4° C. The pellet was suspended in buffer solution and used for binding assays at receptors.
(2) Experiments of α4β2 Subtype of Nicotinic Acetylcholine Receptors Binding
Suspensions of membrane pellets containing 400-600 μg of protein were added to test tubes containing test compounds and [^3H]-cytisine (2 nM) in a final volume of 200 μl and incubated for 75 minutes in ice-cooled bath. The samples were isolated by vacuum filtration onto Whatman GF/B filters, which were prerinsed with 0.5% polyethylenimine just prior to sample filtration, using Brandel multi manifold cell harvester. The filters were rapidly washed with buffer solution (3×1 ml). The filters were counted in 3 ml of clearsol I (Nacalai Tesque Inc.).
The analyses of the experimental results were conducted by using the Accufit Competition Program (Beckman Ltd.).

T2 sequence (P25108 21-457): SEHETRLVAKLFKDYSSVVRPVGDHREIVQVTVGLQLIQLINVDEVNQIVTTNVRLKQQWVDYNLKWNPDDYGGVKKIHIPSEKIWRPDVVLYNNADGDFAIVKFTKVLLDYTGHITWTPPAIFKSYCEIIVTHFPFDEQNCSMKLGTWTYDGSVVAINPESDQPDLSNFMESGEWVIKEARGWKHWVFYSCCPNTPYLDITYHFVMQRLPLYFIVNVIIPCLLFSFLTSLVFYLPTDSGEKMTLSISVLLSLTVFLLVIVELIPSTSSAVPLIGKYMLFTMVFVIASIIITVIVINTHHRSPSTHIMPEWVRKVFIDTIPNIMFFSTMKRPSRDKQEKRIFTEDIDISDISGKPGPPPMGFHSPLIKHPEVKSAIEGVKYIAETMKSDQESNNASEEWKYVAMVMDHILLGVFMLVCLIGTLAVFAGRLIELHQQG
T2 sequence (P25109 24-501): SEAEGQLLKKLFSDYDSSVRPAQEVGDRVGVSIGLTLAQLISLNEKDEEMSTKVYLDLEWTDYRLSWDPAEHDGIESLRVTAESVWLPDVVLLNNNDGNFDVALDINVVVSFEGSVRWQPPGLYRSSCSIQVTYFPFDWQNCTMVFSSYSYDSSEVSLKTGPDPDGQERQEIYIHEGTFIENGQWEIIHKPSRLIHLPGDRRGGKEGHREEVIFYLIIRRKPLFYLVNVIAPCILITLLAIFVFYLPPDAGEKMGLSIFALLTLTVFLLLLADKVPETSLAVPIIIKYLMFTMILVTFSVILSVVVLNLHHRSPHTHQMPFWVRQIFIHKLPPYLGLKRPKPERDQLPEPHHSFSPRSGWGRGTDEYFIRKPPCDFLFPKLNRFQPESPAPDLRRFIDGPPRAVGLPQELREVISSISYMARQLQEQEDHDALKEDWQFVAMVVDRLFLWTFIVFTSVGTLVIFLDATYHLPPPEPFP
T2 sequence (P25110 22-517): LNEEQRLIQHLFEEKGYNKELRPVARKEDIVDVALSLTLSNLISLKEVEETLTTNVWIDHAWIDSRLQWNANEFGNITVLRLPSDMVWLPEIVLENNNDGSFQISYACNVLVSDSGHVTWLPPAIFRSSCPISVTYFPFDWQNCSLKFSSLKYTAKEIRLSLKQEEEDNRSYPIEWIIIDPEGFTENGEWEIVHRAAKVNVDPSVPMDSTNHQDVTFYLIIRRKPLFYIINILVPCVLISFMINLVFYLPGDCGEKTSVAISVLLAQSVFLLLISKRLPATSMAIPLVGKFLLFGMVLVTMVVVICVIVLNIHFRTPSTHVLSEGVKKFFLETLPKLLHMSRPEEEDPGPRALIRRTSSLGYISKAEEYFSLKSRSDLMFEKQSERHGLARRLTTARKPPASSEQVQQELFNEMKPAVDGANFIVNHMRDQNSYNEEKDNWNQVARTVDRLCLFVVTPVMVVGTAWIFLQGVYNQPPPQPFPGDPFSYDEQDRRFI
T1 sequence (P43681 29-627 limits assumed): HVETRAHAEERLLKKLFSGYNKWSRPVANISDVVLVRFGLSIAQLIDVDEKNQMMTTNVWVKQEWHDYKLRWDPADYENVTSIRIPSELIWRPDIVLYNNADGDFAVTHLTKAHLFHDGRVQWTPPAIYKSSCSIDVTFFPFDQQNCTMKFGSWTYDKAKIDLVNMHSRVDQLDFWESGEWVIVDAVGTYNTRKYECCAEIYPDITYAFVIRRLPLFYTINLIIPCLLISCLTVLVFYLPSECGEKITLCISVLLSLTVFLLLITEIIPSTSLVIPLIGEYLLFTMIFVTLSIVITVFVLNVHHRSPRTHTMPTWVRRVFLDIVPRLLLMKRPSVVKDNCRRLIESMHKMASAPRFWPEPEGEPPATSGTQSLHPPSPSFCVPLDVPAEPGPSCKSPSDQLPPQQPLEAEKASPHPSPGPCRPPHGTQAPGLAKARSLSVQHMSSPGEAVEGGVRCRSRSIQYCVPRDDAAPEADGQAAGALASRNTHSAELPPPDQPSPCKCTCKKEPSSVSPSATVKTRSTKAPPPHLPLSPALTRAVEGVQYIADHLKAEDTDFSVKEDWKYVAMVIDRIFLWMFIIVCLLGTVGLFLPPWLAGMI
T1 sequence (P17787 26-502): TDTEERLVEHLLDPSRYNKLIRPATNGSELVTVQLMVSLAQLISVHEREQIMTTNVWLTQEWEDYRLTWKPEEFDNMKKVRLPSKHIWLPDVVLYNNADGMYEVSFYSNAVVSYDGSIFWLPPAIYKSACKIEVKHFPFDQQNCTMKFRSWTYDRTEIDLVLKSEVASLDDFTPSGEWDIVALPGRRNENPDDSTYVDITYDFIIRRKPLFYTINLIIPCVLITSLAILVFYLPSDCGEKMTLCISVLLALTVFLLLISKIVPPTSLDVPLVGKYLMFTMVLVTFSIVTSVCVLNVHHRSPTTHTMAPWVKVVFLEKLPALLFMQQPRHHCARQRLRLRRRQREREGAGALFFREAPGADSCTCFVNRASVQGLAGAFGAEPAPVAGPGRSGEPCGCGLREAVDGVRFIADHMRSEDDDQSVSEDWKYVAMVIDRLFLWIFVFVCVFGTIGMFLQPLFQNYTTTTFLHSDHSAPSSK
T3 sequence (P09483 31-630): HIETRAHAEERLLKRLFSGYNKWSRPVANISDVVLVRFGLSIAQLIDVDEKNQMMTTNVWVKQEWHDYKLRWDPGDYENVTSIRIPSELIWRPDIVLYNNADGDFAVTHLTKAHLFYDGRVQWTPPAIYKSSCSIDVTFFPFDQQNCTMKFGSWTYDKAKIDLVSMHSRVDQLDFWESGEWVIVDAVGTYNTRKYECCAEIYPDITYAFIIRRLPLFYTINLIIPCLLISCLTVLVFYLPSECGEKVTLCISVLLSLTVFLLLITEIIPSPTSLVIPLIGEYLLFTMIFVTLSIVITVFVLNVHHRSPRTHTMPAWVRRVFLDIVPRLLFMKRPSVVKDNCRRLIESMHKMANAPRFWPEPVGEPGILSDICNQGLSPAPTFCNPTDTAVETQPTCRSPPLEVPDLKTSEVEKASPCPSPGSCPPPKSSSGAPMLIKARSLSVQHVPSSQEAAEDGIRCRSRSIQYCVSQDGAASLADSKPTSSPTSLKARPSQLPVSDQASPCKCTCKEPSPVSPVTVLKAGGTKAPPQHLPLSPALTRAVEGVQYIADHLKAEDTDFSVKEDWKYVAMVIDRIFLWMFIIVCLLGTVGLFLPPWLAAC
T3 sequence (P12390 25-500): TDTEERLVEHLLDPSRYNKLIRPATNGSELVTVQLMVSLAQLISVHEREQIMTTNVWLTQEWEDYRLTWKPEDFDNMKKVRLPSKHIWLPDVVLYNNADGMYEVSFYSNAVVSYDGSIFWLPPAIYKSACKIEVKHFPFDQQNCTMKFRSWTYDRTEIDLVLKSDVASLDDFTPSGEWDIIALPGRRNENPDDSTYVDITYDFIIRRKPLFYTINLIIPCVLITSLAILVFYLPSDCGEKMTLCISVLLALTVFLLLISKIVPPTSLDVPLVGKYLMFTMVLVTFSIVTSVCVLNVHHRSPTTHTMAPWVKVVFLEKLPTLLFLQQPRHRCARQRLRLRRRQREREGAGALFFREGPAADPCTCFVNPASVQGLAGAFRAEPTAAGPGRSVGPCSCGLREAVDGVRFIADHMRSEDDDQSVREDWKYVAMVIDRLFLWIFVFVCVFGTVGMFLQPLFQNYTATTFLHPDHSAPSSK

Row | Structure (SMILES) | Agonist effect [1] | Ki [2] | Ki [3]
1 | CN1CCCC1c1cccnc1 (single isomer, unassigned; (-)) [Nicotine, (−)-nicotine, reference compound] | 146% | – | –
2 | Clc1ccc(CC/N=C2\SCCN2Cc2ccc(Cl)nc2)cn1 [Compound 15, 3-(6-chloro-3-pyridyl)methyl-2-[2-(6-chloro-3-pyridyl)ethyl]iminothiazolidine] | – | 479 µM | 0.086 µM

Reference: patent publication US6900202B2, “Di-substituted imineheterocyclic compounds” (priority 2000, dated 2005)
